Measured values reported in patent publication US5244795A, “Processes for preparing cholesterol lowering compounds” (Merck & Co., Inc., priority 1992, dated 1993).

How the values were obtained:
[1] = test system: Candida albicans; experiment: FISP disc diffusion assay; format: cell-based; design: key to zone quality qualifier: F: clear zone, fuzzy edges; S: slightly hazy zone (some growth observed throughout zone); H: hazy zone (considerable growth observed throughout zone); V: very hazy zone (zone of inhibition is barely discernable); R: zone displays a ring of resistant growth; no qualifier: clear zone throughout, sharp edges; conditions: 250 μg/ml in CH2Cl2
From the text: (§1) The FISP assay employs disc diffusion susceptibility testing methods to generate a spectrum of activity against a panel of representative yeasts, filamentous fungi and bacteria.
(§2) The yeasts employed in the assay are Saccharomyces cerevisiae, Candida albicans, Candida tropicalis, Candida rugosa, Brettanomyces bruxellensis, Torulospora hansenii, Candida guilliermondi, Candida pseudotropicalis, Torulopsis glabrata, Cryptococcus albidus, Cryptococcus laurentii and Kluyveromyces fragilis.
(§3) For carrying out the assay, seeded assay plates are prepared in the following manner according to the type of assay strain.
(§4) Inocula for yeasts and bacterial strains are prepared from overnight broth cultures then diluted into potato dextrose agar to a final concentration of either 40 percent or 70 percent transmission at 660 nm.
(§5) For three strains of Candida albicans and one strain of Saccharomyces cerevisiae, sterile saline is employed in place of potato dextrose broth.
(§6) Assay plates for the yeasts and filamentous fungi are prepared by diluting the inoculum into appropriate molten agar medium, cooled to 45° C. to obtain a final concentration of 4 percent.
(§7) The seeded agar media thus prepared are dispensed into petri dishes for assays (11 ml per dish).
(§8) The samples to be tested for production of antifungal agent are applied to 6.2 mm filter paper discs (25 μl/disc) and air dried at 24° C. When the sample to be tested is crude broth, it may be centrifuged prior to application. The discs bearing the material to be tested are then applied employing sterile conditions to the seeded assay plates. The assay plates are then incubated at either 28° C. or 37° C. for 24 hours. In one of the assays for Bacillus subtilis, the sample is applied to a disc previously impregnated with 4M potassium chloride at 25 μl/disc and then air dried.
(§9) Following incubation, the inhibition zones are measured and recorded. The measurements are made from the extreme edge where growth differs from the background zone. The zones are noted as to appearance as fuzzy edge and clear center, hazy throughout, slightly hazy, very hazy or ringed.
(§10) FISP data is reported as the diameter (in mm.) of the zone of inhibition of growth in agar diffusion assays. The zone is determined by measuring growth that differs from the background lawn. A qualifier is also added to describe the zone quality as listed below: no qualifier: clear zone throughout, sharp edges

[2] = test system: Saccharomyces cerevisiae; experiment: FISP disc diffusion assay; format: cell-based; design: key to zone quality qualifier: F: clear zone, fuzzy edges; S: slightly hazy zone (some growth observed throughout zone); H: hazy zone (considerable growth observed throughout zone); V: very hazy zone (zone of inhibition is barely discernable); R: zone displays a ring of resistant growth; no qualifier: clear zone throughout, sharp edges; conditions: 250 μg/ml in CH2Cl2
From the text: as §1, §2, §3, §4, §5, §6, §7, §8, §9, §10

`CC(/C=C/C=C(\C)C(O)C(C)C(=O)O[C@H]1C[C@H](C)C=C2C=C[C@@]3(C)O[C@@H](O)CC(=O)[C@]3(C)[C@H]21)=C\C=C\C(=O)O` (some centres unmarked) [Compound A] was tested, and the zone quality qualifier [1] was “S”, the zone quality qualifier ([1]; YNB) was “V” and the zone quality qualifier ([1]; YNB/GLU) was “H”. The zone quality qualifier ([1]; YNB/NAG) was “H”, the zone of inhibition at 250 µg/mL ([1]; Candida albicans, read-out: diameter of the zone of inhibition of growth) was 0 mm and the zone quality qualifier [2] was “H”. For the same molecule, the zone quality qualifier ([2]; YNB) was “H” and the zone of inhibition at 250 µg/mL ([2]; Saccharomyces cerevisiae, read-out: diameter of the zone of inhibition of growth) was 0 mm.
